Test results taken from patent US4413005A, “Carbamate derivatives and insecticidal, miticidal or nematocidal compositions containing the same” (priority 1981, dated 1983).
Read-outs that look alike come from different tables or passages of the source.

Key:
[1] = test system: tobacco cutworm (Spodoptera litura); assay: Mortality of third-instar larvae of tobacco cutworm on cabbage (Test Example 1); format: in vivo
Method: Ten third-instar larvae of tobacco cutworm (Spodoptera litura) were placed on a cabbage (one-month-old seedling) planted in a pot, and a 50% emulsion of the compound to be tested was diluted to a specified concentration and applied to the leaves of the plant to fully wet them. The test compound of each specified concentration was tested on two pots.

[2] = test system: green rice leafhopper (Nephotettix cincticeps); assay: Mortality of female adults of green rice leafhopper on paddy rice (Test Example 2); format: in vivo; details: 72 h
Method: An emulsion of specified concentration was prepared from a 50% wettable powder of the compound to be tested and applied to the leaves of paddy rice (one-month-old seedlings) planted in a pot to fully wet the leaves. After the emulsion had been dried, the pot was covered with a net cage, into which 10 female adults of green rice leafhopper (Nephotettix cincticeps) were released. The compound of each specified concentration was tested on two pots.

[3] = test system: house fly (Musca domestica); assay: Local application to house fly, LD50 by Probit method (Test Example 4); format: in vivo; details: topical, 24 h
Method: The compound to be tested was dissolved in a predetermined amount of acetone. The solution was diluted to various concentrations and locally applied to house fly (Musca domestica).

[4] = Acute oral toxicity in male mice, LD50 by Litchfield-Wilcoxon method (Test Example 5); details: mouse, in vivo, mortality on the seventh day
Method: Compounds of this invention were tested on male mice for acute toxicity by oral administration.

SMILES	mortality at 500 ppm ([1]; 72 h, 500 ppm active ingredient, 50% emulsion diluted, three days later, read-out: Mortality) [%]	mortality at 1000 ppm ([1]; 72 h, 1,000 ppm active ingredient, 50% emulsion diluted, three days later, read-out: Mortality) [%]	mortality at 2000 ppm ([1]; 72 h, 2,000 ppm active ingredient, 50% emulsion diluted, three days later, read-out: Mortality) [%]	mortality at 200 ppm ([2]; 200 ppm active ingredient, from 50% wettable powder, three days later, read-out: Mortality) [%]	mortality at 400 ppm ([2]; 400 ppm active ingredient, from 50% wettable powder, three days later, read-out: Mortality) [%]	mortality at 800 ppm ([2]; 800 ppm active ingredient, from 50% wettable powder, three days later, read-out: Mortality) [%]	LD50 [3] [mg/kg]	LD50 at 168 h [4] [mg/kg]	mortality at 500 ppm ([1]; 72 h) [%]	mortality at 1000 ppm ([1]; 72 h) [%]	mortality at 2000 ppm ([1]; 72 h) [%]	mortality at 200 ppm [2] [%]	mortality at 400 ppm [2] [%]	mortality at 800 ppm [2] [%]
CCOC(=O)CCN(SN(C)C(=O)Oc1cccc2c1OC(C)(C)C2)C(C)C [Example 23, 2,3-Dihydro-2,2-dimethylbenzofuran-7-yl N-(N-isopropyl-N-ethoxycarbonylethylaminosulfenyl)-N-methylcarbamate]	70	85	100	55	85	100	44.3	113						
CCOC(=O)CCN(CCC(=O)OCC)SN(C)C(=O)Oc1cccc2c1OC(C)(C)C2 [Example 6, 2,3-dihydro-2,2-dimethylbenzofuran-7-yl N-[N,N-bis(ethoxycarbonylethyl)aminosulfenyl]-N-methylcarbamate]							38.3	135	60	75	100	55	75	95
COC(=O)CN(CC(=O)OC)SN(C)C(=O)Oc1cccc2c1OC(C)(C)C2 [Example 3]							40	145	65	80	100	45	85	100
CCOC(=O)CCN(CC(C)C)SN(C)C(=O)Oc1cccc2c1OC(C)(C)C2 [Example 30]							23.8	133	65	85	100	60	80	100
CCCCCCCCN(CCC#N)SN(C)C(=O)Oc1cccc2c1OC(C)(C)C2 [Example 41]							54.6	105	65	80	100	60	75	95
CN(SN(CCC#N)C1CCCCC1)C(=O)Oc1cccc2c1OC(C)(C)C2 [Example 42]							46	88	70	85	100	65	85	100
CCOC(=O)CN(CC(=O)OCC)SN(C)C(=O)Oc1cccc2c1OC(C)(C)C2 [Example 2, 2,3-dihydro-2,2-dimethylbenzofuran-7-yl N-[N,N-bis(ethoxycarbonylmethyl)aminosulfenyl]-N-methylcarbamate]							58.8	140	60	70	100	45	85	100
CCOC(=O)CN(SN(C)C(=O)Oc1cccc2c1OC(C)(C)C2)C(=O)OCC [Example 44, 2,3-dihydro-2,2-dimethylbenzofuran-7-yl N-(N-ethoxycarbonyl-N-ethoxycarbonylmethylaminosulfenyl)-N-methyl-carbamat]							16.2	128	75	90	100	70	90	100
CCCCOC(=O)CCN(SN(C)C(=O)Oc1cccc2c1OC(C)(C)C2)C(C)C [Example 25]							50.1	123	75	90	100	65	90	100
CCOC(=O)CN(SN(C)C(=O)Oc1cccc2c1OC(C)(C)C2)c1ccc(OC)cc1 [Example 22]							45.2	88	65	85	100	60	80	100
CCOC(=O)CN(SN(C)C(=O)Oc1cccc2c1OC(C)(C)C2)S(=O)(=O)c1ccc(C)cc1 [Example 48]							58.6	80	65	80	100	60	75	95
Cc1ccc(N(CC#N)SN(C)C(=O)Oc2cccc3c2OC(C)(C)C3)cc1 [Example 36]							59.3	70	65	80	100	60	75	95
CCOC(=O)CN(SN(C)C(=O)Oc1cccc2c1OC(C)(C)C2)c1ccccc1 [Example 13, 2,3-dihydro-2,2-dimethylbenzofuran-7-yl N-(N-phenyl-N-ethoxycarbonylmethylaminosulfenyl)-N-methylcarbamate]							12.5	115	75	90	100	65	90	100
CC(C)OC(=O)CN(CC(=O)OC(C)C)SN(C)C(=O)Oc1cccc2c1OC(C)(C)C2 [Example 4]							28.9	122	60	70	100	40	70	100
CN(SN(CCC#N)CCC#N)C(=O)Oc1cccc2c1OC(C)(C)C2 [Example 7, 2,3-dihydro-2,2-dimethylbenzofuran-7-yl N-[N,N-bis(cyanoethyl)aminosulfenyl]-N-methyl-carbamate]							54	75	60	75	100	50	70	90
CCOC(=O)CN(SN(C)C(=O)Oc1cccc2c1OC(C)(C)C2)C(=O)c1ccccc1 [Example 46]							33.2	105	70	85	100	65	85	100
CCOC(=O)CN(Cc1ccccc1)SN(C)C(=O)Oc1cccc2c1OC(C)(C)C2 [Example 19]							22.2	108	65	85	100	60	80	100
CCCCCCN(CCC(=O)OCC)SN(C)C(=O)Oc1cccc2c1OC(C)(C)C2 [Example 31]							33.1	135	60	80	100	55	75	100
CCCCN(CCC#N)SN(C)C(=O)Oc1cccc2c1OC(C)(C)C2 [Example 39, 2,3-Dihydro-2,2-dimethylbenzofuran-7-yl N-(N-n-butyl-N-cyanoethylaminosulfenyl)-N-methyl-carbamate]							13.7	110	75	90	100	70	90	100
CCOC(=O)CN(SN(C)C(=O)Oc1cccc2c1OC(C)(C)C2)C1CCCCC1 [Example 18]							32.5	135	75	90	100	65	90	100
CN(CCC#N)SN(C)C(=O)Oc1cccc2c1OC(C)(C)C2 [Example 37]							11.8	65	70	85	100	65	85	100
CCCCN(CC#N)SN(C)C(=O)Oc1cccc2c1OC(C)(C)C2 [Example 33, 2,3-dihydro-2,2-dimethylbenzofuran-7-yl N-(N-butyl-N-cyanomethylaminosulfenyl)-N-methyl-carbamate]							9.1	103	75	90	100	70	90	100
CC(C)N(CCC#N)SN(C)C(=O)Oc1cccc2c1OC(C)(C)C2 [Example 38]							17.5	125	75	90	100	70	90	100
